Data: PMC10384408, “Anticancer Tungstenocenes with a Diverse Set of (O,O–), (O,S–) and (O,N–) Chelates—A Detailed Biological Study Using an Improved Evaluation via 3D Spheroid Models” (Pharmaceutics, 2023)
Read-outs that look alike come from different tables or passages of the source.

Columns and labels:
[1] = test system: SW480 (colon carcinoma) cells; conditions: MTT assay, 96 h; cited from earlier work
[2] = test system: CH1/PA-1 (ovarian teratocarcinoma) cells; conditions: MTT assay, 96 h; cited from earlier work
[3] = test system: A549 (non-small cell lung carcinoma) cells; conditions: MTT assay, 96 h; cited from earlier work
[4] = test system: A549 (non-small cell lung carcinoma) cells; experiment: MTT cytotoxicity assay, A549 monolayer; type: cell-based, human
Experimental: (§1) CH1/PA-1 (ovarian teratocarcinoma), SW480 (colon carcinoma) and A549 (non-small cell lung cancer) cells were maintained as described in the reference. IMR-90 human fetal lung fibroblasts (from the European Collection of Authenticated Cell Cultures, Porton Down, Salisbury, UK) were cultured in Stable Cell^TM DMEM/F12 supplemented with 0.01 mg/mL human recombinant insulin (both purchased from Sigma-Aldrich) and 10% fetal bovine serum (FBS, BioWest, Nuaillé, France). Human colon carcinoma cell lines HCT116 and HT29 (both kindly provided by the Institute of Cancer Research, Department of Medicine I, Medical University of Vienna, Austria) were cultured in McCoy’s 5a medium supplemented with 4 mM L-glutamine (both purchased from Sigma-Aldrich) and 10% FBS. MCF-7 human breast adenocarcinoma cells (kindly provided by M. Ogris, Department of Pharmaceutical Sciences, University of Vienna, Austria) were maintained in DMEM (high glucose) supplemented with 4 mM L-glutamine, 0.1 mg/mL human insulin (all purchased from Sigma-Aldrich) and 10% FBS. All cell lines were grown as monolayers in 75 cm^2 culture flasks (CytoOne, Starlab, Hamburg, Germany) at 37 °C in a humidified atmosphere containing 5% CO2.
(§2) Exponentially growing cells were plated into 96-well microculture plates (CytoOne, tissue culture treated, Starlab, Hamburg, Germany) in densities of 1 × 10^3 CH1/PA-1, 2 × 10^3 SW480, 3 × 10^3 A549 and 7 × 10^3 IMR-90 cells per well (each in 100 µL). After a 24 h preincubation, drugs were added in serial dilution to give a final volume of 200 µL/well and exposed for 96 h. At the end of the exposure, the drug solutions were replaced by 100 µL RPMI 1640/MTT mixture (7:1 ratio). MTT (3-(4,5-dimethylthiazol-2-yl)-2,5-diphenyl-2H-tetrazolium bromide), (Acros Organics, Geel, Belgium) solution was prepared in phosphate-buffered saline (5 mg/mL) and mixed with RPMI1640 medium supplemented with 4 mM L-glutamine (both from Sigma-Aldrich) and 10% FBS. After 4 h incubation, the formazan crystals were solubilized in 150 µL of DMSO per well. Absorbance was measured at 550 nm (and at 690 nm as a reference) with a microplate reader (ELx808, BioTek, Winoosky, VT, USA) and Gen5^TM 3.08 software (BioTek). The 50% inhibitory concentrations (IC50) relative to untreated controls were interpolated from concentration-effect curves. At least three biologically and technically independent experiments were performed.

[5] = test system: SW480 (colon carcinoma) cells; experiment: MTT cytotoxicity assay, SW480 monolayer; type: cell-based, human
Experimental: as §1, §2

[6] = Cyclic voltammetry in MeCN (W(IV) to W(V)); type: physicochemical; conditions: vs. NHE, scan rate 200 mV/s
Experimental: NMR spectra were recorded with a Bruker FT-NMR Avance III^TM 500 MHz spectrometer at 500.10 (^1H), and 125.75 MHz (^13C) using DMSO–d6. 2D-NMR measurements were recorded utilizing standard pulse programs COSY, HSQC and HMBC. The Microanalytical Laboratory of the University of Vienna performed the elemental analyses with a Eurovector EA 3000(2009) equipped with a high temperature pyrolysis furnace (HT, Hekatech, Germany, 2009). Elemental analyses’ samples were weighed (weights from 1–3 mg were used) on a Sartorius SEC 2 ultra-micro balance with ±0.1 µg resolution. Two NIST-certified reference materials were used for calibration: sulfanilamide (C6H8N2O2S) and BBOT (2,5-bis-(5-tert-butyl-2-benzoxazol-2-yl)-thiophenone, C26H26N2O2S). The limit of quantification (LOQ) was 0.05 w% for C, H, N and 0.02 w% for S. For samples without N and/or S, the content of these elements was determined and verified to be below the LOQ. X-ray diffraction analyses were carried out on a Bruker X8 APEX II CCD diffractometer at 100 K. ESI-MS were recorded on a Bruker AmaZon SL ion trap mass spectrometer (Bruker Daltonics GmbH). Data were obtained and processed with Compass 1.3 and Data Analysis 4.0 (Bruker Daltonics GmbH). Infrared spectra were attained on a Bruker Vertex 70 FT-IR-spectrometer with an ATR-unit (attenuated total reflection unit) in the range of 4000–600 cm^−1. Intensities of the reported bands are described with w for weak, m for medium and s for strong; broad signals are additionally specified with the letter b in front of these abbreviations. Cyclic voltammograms (CVs) were measured in a three-electrode cell using 2 mm diameter glassy carbon disk working electrode, a platinum auxiliary electrode and an Ag|Ag^+ reference electrode containing 0.1 M AgNO3. Measurements were carried out at room temperature using an EG&G PARC potentiostat/galvanostat 273A. The solutions were deoxygenized by purging a stream of argon for 3 min through the solution and the experiment was performed under an argon atmosphere. The potentials were measured in a freshly prepared solution of (n Bu4N)[BF4] (0.1 M) in acetonitrile using ferrocene (Fe(η^5-C5H5)2) (E1/2 = +0.72 V vs. NHE) as an internal standard and are quoted relative to the normal hydrogen electrode (NHE).
The electrochemical behavior of all complexes and the precursor Cp2WCl2 was studied by cyclic voltammetry with a scan rate of 200 mV/s, from −0.5 to +1.2 or +1.5 V. Measurements were performed in triplicate. Due to low water solubility of compounds 1–10 acetonitrile (MeCN) was utilized in order to reach the 2 mM concentration.

[7] = Solubility in PBS (1% DMSO); type: physicochemical
Experimental: Stock solutions in DMSO of compounds 1–10 were utilized to determine the solubility in PBS by adding 1 vol% of the stock solution to a suitable amount of PBS. […] UV/Vis data were recorded on a Perkin Elmer Lambda 650 UV/Vis Spectrophotometer with a Peltier element for temperature control.

[8] = test system: CH1/PA-1 (ovarian teratocarcinoma) cells; experiment: MTT cytotoxicity assay, CH1/PA-1 monolayer; type: cell-based, human; conditions: exposure time 96 h, mean ± SD
Experimental: as §1, §2

F[P-](F)(F)(F)(F)F.O=c1c([O-])c(-c2ccc(Cl)cc2)oc2ccccc12.[Mo+4].c1cc[cH-]c1.c1cc[cH-]c1 [[Cp2Mo(L3)]PF6]
IC50 [1]: 5.6 ± 0.2 µM | IC50 [2]: 1700 ± 400 nM | IC50 [3]: 24 ± 4 µM

Cc1occc(=O)c1[O-].F[P-](F)(F)(F)(F)F.[W+4].c1cc[cH-]c1.c1cc[cH-]c1 [Compound 1, Bis(η^5-cyclopentadienyl)[2-methyl-3-(oxo-κO)-4-(1H)-pyran-4-ato-κO]tungsten(IV) hexafluorophosphate]
activity in A549 ([4]; 96 h): no activity was observed | IC50 ([4]; exposure time 96 h, mean ± SD): > 200 µM | activity in SW480 ([5]; 96 h): no activity was observed | IC50 ([5]; exposure time 96 h, mean ± SD): > 200 µM | E1/2 [6]: 1.037 V | Solubility in PBS (1% DMSO) [7]: 0.23 mg/mL | IC50 [8]: 85 ± 41 µM

F[P-](F)(F)(F)(F)F.O=C([O-])c1ccccn1.[Mo+4].c1cc[cH-]c1.c1cc[cH-]c1 [[Cp2Mo(L5)]PF6]
IC50 [1]: > 200 µM | IC50 [2]: > 200000 nM | IC50 [3]: > 200 µM

F[P-](F)(F)(F)(F)F.[Mo+4].[O-]c1c(-c2ccc(Cl)cc2)oc2ccccc2c1=S.c1cc[cH-]c1.c1cc[cH-]c1 [[Cp2Mo(L4)]PF6]
IC50 [1]: 1.6 ± 0.2 µM | IC50 [2]: 720 ± 130 nM | IC50 [3]: 5.7 ± 1 µM
